According to ChEMBL document CHEMBL1128273, “Quantitative structure-activity relationships of the inhibition of Pneumocystis carinii dihydrofolate reductase by 4,6-diamino-1,2-dihydro-2,2-dimethyl-1-(X-phenyl)-s-triazines” (J Med Chem, 1995):

Columns and labels:
Dihydrofolate reductase [1] = target: T1, Dihydrofolate reductase (Pneumocystis carinii, UniProt P16184)
T1 sequence (P16184 whole entry): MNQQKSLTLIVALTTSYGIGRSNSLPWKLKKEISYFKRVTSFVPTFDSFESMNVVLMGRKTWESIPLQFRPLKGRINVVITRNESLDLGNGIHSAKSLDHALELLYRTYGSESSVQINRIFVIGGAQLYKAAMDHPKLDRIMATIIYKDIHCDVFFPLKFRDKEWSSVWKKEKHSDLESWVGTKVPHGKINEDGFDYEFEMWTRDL
Description: Inhibition of dihydrofolate reductase (DHFR) from Pneumocystis carinii.

[2] = Partition coefficient (logP); type: physicochemical; settings: octanol/water
Dihydrofolate reductase [3] = target: T2, Dihydrofolate reductase (Homo sapiens, UniProt P00374); assay: Inhibition of human dihydrofolate reductase (DHFR); settings: read-out: Log 1/Ki (converted)
T2 sequence (P00374 whole entry): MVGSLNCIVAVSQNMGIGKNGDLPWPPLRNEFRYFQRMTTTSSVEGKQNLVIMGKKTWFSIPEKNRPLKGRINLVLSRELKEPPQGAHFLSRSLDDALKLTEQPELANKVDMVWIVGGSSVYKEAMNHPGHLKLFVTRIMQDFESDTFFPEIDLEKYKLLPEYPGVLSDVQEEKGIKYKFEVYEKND

[4] = Selectivity index as the ratio of Ki value towards Human DHFR to that of Pneumocystis carinii DHFR.

Ki (Dihydrofolate reductase [1]) [nM]	SMILES	other results
6310	CCOc1cccc(N2C(N)=NC(N)=NC2(C)C)c1	
4.57	CC1(C)N=C(N)N=C(N)N1c1cccc(COc2cccc(NC(N)=O)c2)c1	
4.47	CC1(C)N=C(N)N=C(N)N1c1cccc(COc2cccc(-c3ccccc3)c2)c1	
3.24	CC(=O)Nc1cccc(OCc2cccc(N3C(N)=NC(N)=NC3(C)C)c2)c1	
132	CC1(C)N=C(N)N=C(N)N1c1ccc(C(F)(F)F)cc1	
7.94	CCCCCCc1ccc(N2C(N)=NC(N)=NC2(C)C)cc1	
251	CSc1ccc(N2C(N)=NC(N)=NC2(C)C)cc1	
100	CCCCCCOc1ccc(N2C(N)=NC(N)=NC2(C)C)cc1	
2.82	CC1(C)N=C(N)N=C(N)N1c1cccc(SCc2ccccc2)c1	Ki (Dihydrofolate reductase [3]): 42.7 nM; Selectivity index [4]: 1.18
1170	CC1(C)N=C(N)N=C(N)N1c1cccc(C(O)c2ccccc2)c1 (stereo not drawn)	
631	CCCCOc1ccc(N2C(N)=NC(N)=NC2(C)C)cc1	
15.8	CCCCCCCCCCc1ccc(N2C(N)=NC(N)=NC2(C)C)cc1	
8.32	CC1(C)N=C(N)N=C(N)N1c1cccc(COc2cccc(C#N)c2)c1	
257	CCCCCOc1ccc(N2C(N)=NC(N)=NC2(C)C)cc1	

Continued, molecule first:

SMILES	Ki (Dihydrofolate reductase [1]) [nM]	other results
CC1(C)N=C(N)N=C(N)N1c1cccc(COc2cccc(CO)c2)c1	25.1	
CCCCCCCc1ccc(N2C(N)=NC(N)=NC2(C)C)cc1	6.31	
CN(C)C(=O)c1cccc(COc2ccc(N3C(N)=NC(N)=NC3(C)C)cc2Cl)c1		logP [2]: -1.84
CC(C)c1cccc(OCc2cccc(N3C(N)=NC(N)=NC3(C)C)c2)c1	4.79	
CC1(C)N=C(N)N=C(N)N1c1cccc(COc2cccc3ccccc23)c1	5.37	Ki (Dihydrofolate reductase [3]): 135 nM; Selectivity index [4]: 1.38
Cc1ccc(N2C(N)=NC(N)=NC2(C)C)cc1	166	
COc1cccc(OCc2cccc(N3C(N)=NC(N)=NC3(C)C)c2)c1	7.76	
CCOc1cc(Cc2cnc(N)nc2N)cc(OCC)c1-n1cccc1 [EPIROPRIM]	17.4	Selectivity index [4]: 0.53
CCOC(=O)c1cccc(N2C(N)=NC(N)=NC2(C)C)c1	2340	
CC1(C)N=C(N)N=C(N)N1c1cccc(OCCCCOc2ccccc2)c1	38	
CCCCCc1ccc(OCc2cccc(N3C(N)=NC(N)=NC3(C)C)c2)cc1	17	
CC(C)(C)c1cccc(N2C(N)=NC(N)=NC2(C)C)c1	214	
CC1(C)N=C(N)N=C(N)N1c1cccc(OCCOc2cccc(C(F)(F)F)c2)c1	22.4	
CC1(C)N=C(N)N=C(N)N1c1ccc(O)cc1	2510	
CC1(C)N=C(N)N=C(N)N1c1cccc(SCc2ccc(Cl)cc2)c1	2.63	
CCCCCCOc1cccc(N2C(N)=NC(N)=NC2(C)C)c1	21.4	
CCCCCCCCc1ccc(N2C(N)=NC(N)=NC2(C)C)cc1	6.31	
CCCCCCCCCCCCCCOc1cccc(N2C(N)=NC(N)=NC2(C)C)c1	331	
CC1(C)N=C(N)N=C(N)N1c1cccc([N+](=O)[O-])c1	132	
CC1(C)N=C(N)N=C(N)N1c1ccc(CCCCc2ccc(S(=O)(=O)F)cc2Cl)c(Cl)c1		logP [2]: 2.42
CCCCCCCCCCCOc1cccc(N2C(N)=NC(N)=NC2(C)C)c1	18.6	
CC1(C)N=C(N)N=C(N)N1c1cccc(OCc2ccccc2)c1	64.6	
CCCCCCCCCOc1cccc(N2C(N)=NC(N)=NC2(C)C)c1	6.76	
Cc1cccc(OCc2cccc(N3C(N)=NC(N)=NC3(C)C)c2)c1	19.5	
CCc1cccc(OCc2cccc(N3C(N)=NC(N)=NC3(C)C)c2)c1	4.17	
CC1(C)N=C(N)N=C(N)N1c1cccc(CNc2cc(C(N)=O)cc(C(N)=O)c2)c1	15.1	
CC1(C)N=C(N)N=C(N)N1c1cccc(OCC23CC4CC(CC(C4)C2)C3)c1	17	Selectivity index [4]: 1.66
CC1(C)N=C(N)N=C(N)N1c1cccc(COc2cccc(Cl)c2)c1	12	
